# B1: His-DUSP18 (enzyme, human, UniProt Q8NEJ0 1-188, looked up)
# chain: MTAPSCAFPVQFRQPSVSGLSQITKSLYISNGVAANNKLMLSSNQITMVINVSVEVVNTLYEDIQYMQVPVADSPNSRLCDFFDPIADHIHSVEMKQGRTLLHCAAGVSRSAALCLAYLMKYHAMSLLDAHTWTKSCRPIIRPNSGFWEQLIHYEFQLFGKNTVHMVSSPVGMIPDIYEKEVRLMIPL
# notes: full-length WT human DUSP18, in pMCSG7; In the SPR it is called 'DUSP18 protein'; removal of the tag is not mentioned; also called DUSP18 protein; WT-DUSP18; source: E. coli, purified; not shown: His, N-terminal, kept
# Assays:
# [1] = test system: GPR54 / Src interaction; assay: Co-IP: interaction of GPR54 with Src in transfected 293T cells; format: cell-based, human; settings: inhibitor 1 h (U73122 10 µM, Staurosporine 0.25 µM, LY3214996 10 µM, KN-93 10 µM, Saracatinib 10 µM), then 10 nM Kp-10 20 min
# Method: (§1) Data represent means ± SEM. P values were determined by one-way ANOVA analysis (b, c, e, g, i, k). Representative results were obtained from at least three independent experiments. Source data are provided as a Source Data file.
# (§2) Whole-cell proteins were extracted using 1x RIPA buffer (25 mM Tris, pH7.5, 150 mM NaCl, 0.5% Sodium deoxycholate, 1% Triton-X-100) supplemented with protease inhibitors (Complete Mini, Roche) and phosphatase inhibitors (phosphatase inhibitor cocktail set I and II, Calbiochem). Immunoprecipitation and immunoblotting with indicated antibodies were performed as described in Supplementary Table 1. Image Jsoftware (V1.52) was used for quantification analysis. Uncropped and unprocessed blots are presented in the Supplementary Information file.
# Error bars are ± SEM. […] Source data are provided as a Source Data file.
# [2] = test system: Dusp18 expression; assay: qPCR of Dusp18 mRNA in RAW264.7 cells; format: cell-based, mouse; settings: U73122 10 µM, Staurosporine 0.25 µM, LY3214996 20 µM, SB203580 10 µM for 1 h, then Kp-10 30 min
# Description: Anti-Flag IP of lysates derived from 293 T cells transfected with GPR54-flag and Src-HA constructs (d) and quantification results (e). Anti-Flag IP of lysates derived from 293 T cells transfected with GPR54-flag and DUSP18-HA constructs (f) and quantification results (g). Anti-Flag IP of lysates derived from 293 T cells transfected with Src-HA, and DUSP18-flag constructs (h) and quantification results (i). j, k IB analysis of lysates derived from WT BMMs and Gq/11 KO BMMs with or without Kp-10 treatment for 1 h (j) and quantification of results (k). l Working model of Kp-10 /Gpr54 mediated Src dephosphorylation. […] However, both active Src and DUSP18 were recruited by GPR54 through the PR motif in GPR54 CT along with the increase of Kp-10 dose (1, 10 nM). […] Data represent means ± SEM. P values were determined by one-way ANOVA analysis (b, c, e, g, i, k). Representative results were obtained from at least three independent experiments. Source data are provided as a Source Data file.
# Total RNA was extracted from RAW264.7 cells using TRIzol® (TaKaRa) and then reverse transcribed into cDNA using the PrimeScript RT-PCR Kit (TaKaRa, RR014) according to the manufacturer’s instructions. The cDNA products were used for quantitative PCR analysis by SYBR Mix (TaKaRa, RR064). Sequences of the indicated primers are described in Supplementary Table 2.
# [3] = test system: Src / DUSP18 interaction; assay: Co-IP/IB: interaction of Src with DUSP18 in transfected 293T cells; format: cell-based
# Method: Anti-Flag IP derived from 293 T cells transfected with HA-Src and either DUSP18-Flag or DUSP18 (C104S)-Flag constructs with or without Kp-10 treatment for 20 min were lysed and subjected to anti-FLAG IP (b). Phosphatase reaction products using His-DUSP18 and His-DUSP18 (C104S) proteins purified from E. coli and SRC proteins purified from Sf9 insect cells (c) and quantification of protein levels (d). Anti-Src IP derived from RAW264.7 cells treated with or without Kp-10 treatment for 20 min were lysed and subjected to anti-Src IP (e) and quantification of protein levels (f). g, h Src and Dusp18 co-localization was analyzed by IF staining in primary pre-osteoclasts treated with 10 nM Kp-10 treatment for 20 min. Representative images of endogenous Dusp18 and Src were shown by TIRF microscopy (g), and MOC was used to quantify the degree of colocalization in cells from multiple images taken randomly (h). Scale bar, 50 µm. i–m IB and quantification of protein levels analysis. Anti-Flag IP derived from 293 T cells transfected with HA-Src, GPR54-myc, and either DUSP18-Flag or DUSP18 (C104S)-Flag constructs after Kp-10 treatment for 20 min (i) and quantification of protein levels (j, k). […] Scale bars, 125 µm (n), and pits depth were quantified by confocal microscopy (o). […] P values were determined by one-way ANOVA analysis (d, f, j, k, m, o) or by two-tailed Student’s t-test (h). […]
# [4] = test system: DUSP18 / GPR54 interaction; assay: Co-IP: interaction of DUSP18 with GPR54 in transfected 293T cells; format: cell-based, human; settings: 293T; inhibitor 1 h (U73122 10 µM, Staurosporine 0.25 µM, LY3214996 10 µM, KN-93 10 µM, Saracatinib 10 µM), then 10 nM Kp-10 20 min
# Method: as §1, §2
# Supplementary Fig. 6 a, b IB and quantification of protein levels analysis. […] Error bars are ± SEM. P-values were determined by two-tailed Student’s t-test (b, e) or by one-way ANOVA analysis (h, j). *P <0.05, **P <0.01, ***P <0.001, ****P <0.0001. Representative results were observed from at least three independent experiments. Source data are provided as a Source Data file.
# [5] = test system: SH3 domain of Src; assay: SH3 domain protein-binding array; settings: TranSignal SH3 Domain Array, GST-GPR54 CT overnight at 4 °C
# Method: SH3 domain protein-binding array was performed using TranSignal™ SH3 Domain Array kit (Cat. #MA3010). The kit was purchased from Panomics, and probed using GST-GPR54 CT. Purified different SH3 domain-containing proteins including the Src kinase family were spotted in duplicate on the membrane filter and tested for their binding to GST-GPR54 CT. Briefly, membrane filters were incubated with […] GST-GPR54 CT protein overnight at 4 °C. After washing the membrane, the GST antibody was incubated overnight at 4 °C. Protein binding was visualized by incubation with an HRP-conjugated antibody. Spots with stronger intensities indicated a higher binding affinity of GST-GPR54 CT with the SH3 domain-containing protein (s). SH3 domain proteins in the array were summarized in Supplementary Table 3.
# [6] = target: B1; assay: SPR; Biacore T200, DUSP18 protein immobilised on CM5 by amine coupling (25 ug/mL, pH 7.4, PBS); 25 °C, 30 µl/minute, PBS with 0.05% Tween-20; kinetics analysis, 1:1 model; settings: both partners purified
# [7] = target: T1, His-SRC protein, Src (G85-L536) (human, UniProt P12931 85-536); assay: SPR; Biacore T200, DUSP18 and Src; which of the two was immobilised is not told; 25 °C, 30 µl/minute, PBS with 0.05% Tween-20; kinetics analysis, 1:1 model; settings: both partners purified
# T1 construct: human Src, G85-L536, in pFastBac HT B; In the SPR it is called 'SRC protein'; removal of the tag is not mentioned; source: Sf9 (Bac-to-Bac baculovirus), purified; not shown: His6, N-terminal, kept
# [8] = test system: Src (Y416); assay: in vitro phosphatase activity assay with Src; format: biochemical, human; settings: purified proteins; 30 min at 30 °C; Western blot
# Method: The C terminus of human GPR54 (H329- L398) and mouse Gpr54 (R331- L396) cDNAs were subcloned into a pGEX-4T2 vector. For purification of full-length WT human DUSP18 and DUSP18 (C104S) proteins, DUSP18 was cloned into pMCSG7 vector. For purification of Src (G85-L536) protein, cDNAs of human Src were subcloned into pFastBac HT B vector with an N-terminal 6xHis tag and expressed in Sf9 cells (Expression Systems) using the Bac-to-Bac Baculovirus Expression System (Invitrogen) for 48 h. For purification of the Src (G85-V247)-GPR54 (333–356 with C338S, C340S mutation) recombinant fusion protein, the C-terminus of GPR54 (333–356 with C338S and C340S mutation) was linked to the C terminus of Src SH3-SH2 domain (G85-V247), which was subcloned into the pMCSG7 vector.
# For the total phosphatase activity assay, the Co-IP experiment was carried out after Kp-10 treatment of RAW264.7 cells for 20 min, followed by lysis and incubation with the Gpr54 antibody. The assay was performed according to the phosphatase assay kit (Sigma-Aldrich,17-313). For the DUSP18 phosphatase activity assay, His-DUSP18 and His-DUSP18 (C104S) were purified from E Coli, and His-Src was purified from Sf9 insect cells. His-DUSP18 and His-DUSP18 (C104S) were incubated with His-Src in 1x phosphatase buffer (20 mM HEPES, 20 mM MgCl2, 0.03% β-mercaptoethanol)[51] for 30 min at 30 °C with gentle shaking. […]
molecule,measurement,setting,value
Cn1nccc1Nc1nccc(-c2cc3c(s2)C(C)(C)N(CCN2CCOCC2)C3=O)n1 [LY3214996],effect on Kp-10 induced interaction of GPR54 with Src,[1],not by the inhibitors
same,expression of Dusp18 (mRNA),[2],inhibited
CN1CCN(CCOc2cc(OC3CCOCC3)c3c(Nc4c(Cl)ccc5c4OCO5)ncnc3c2)CC1 [Saracatinib],effect on Kp-10 induced interaction of GPR54 with Src,[1],obvioulsly dampened
same,effect on Kp-10 induced interaction of Src with DUSP18,"[3]; 293T, inhibitor 1 h (U73122 10 µM, Staurosporine 0.25 µM, LY3214996 10 µM, KN-93 10 µM, Saracatinib 10 µM), then 10 nM Kp-10 20 min",obvioulsly dampened
same,effect on Kp-10 induced interaction of GPR54 with DUSP18,[4],obvioulsly dampened
CN[C@@H]1C[C@H]2O[C@@](C)([C@@H]1OC)n1c3ccccc3c3c4c(c5c6ccccc6n2c5c31)C(=O)NC4 [Staurosporine],effect on Kp-10 induced interaction of GPR54 with Src,[1],not by the inhibitors
same,expression of Dusp18 (mRNA),[2],inhibited
GPR54 CT: C terminus of human GPR54 (H329- L398),interaction with SH3 domains,[5],interacted with the SH3 domain of Src most obviously
"RVCPCCR (peptide, UniProt Q91V45 336-342, looked up, mouse Gpr54 (Kiss1 receptor), residues 336-342, said to correspond to the RxxPxxR motif; also called peptide of Gpr54^336–342 (RxxPxxR motif); source: synthetic peptide) [mouse Gpr54^336–342 peptide]",Kd,[6],1800 nM
B1,Kd,[7],5.9 nM
"DUSP18 (C104S): enzymatically dead DUSP18 (C104S) mutant (protein, left off: Flag, C-terminal, kept, enzymatically dead DUSP18 (C104S) mutant) MTAPSCAFPVQFRQPSVSGLSQITKSLYISNGVAANNKLMLSSNQITMVINVSVEVVNTLYEDIQYMQVPVADSPNSRLCDFFDPIADHIHSVEMKQGRTLLHSAAGVSRSAALCLAYLMKYHAMSLLDAHTWTKSCRPIIRPNSGFWEQLIHYEFQLFGKNTVHMVSSPVGMIPDIYEKEVRLMIPL",interaction with Src by Co-IP,"[3]; anti-Flag IP, 293T cells transfected with HA-Src",eliminated the interaction with Src
same,dephosphorylation of Src (Y416),[8],had no activity

# Reference: PMC10861593, “Kisspeptin-10 binding to Gpr54 in osteoclasts prevents bone loss by activating Dusp18-mediated dephosphorylation of Src” (Nature Communications, 2024)
